Here are results for 4 molecules from patent publication US20230149408A1, “INHIBITORS OF HUMAN IMMUNODEFICIENCY VIRUS REPLICATION” (VIIV HEALTHCARE UK (No. 5) LIMITED, priority 2020, published 2023).

Each structure is given as a SMILES string. Where two headings read alike, the source gives them in different places.

Type in all cases: cell-based
One data set deals with recombinant NL4-3 virus. In words: HIV cell culture assay: antiviral activity toward recombinant NL4-3 Renilla luciferase virus in MT-2 cells. The procedure: HIV cell culture assay - MT-2 cells, 293T cells and the proviral DNA clone of NL4-3 virus were obtained from the NIH AIDS Research and Reference Reagent Program. MT-2 cells were propagated in RPMI 1640 media supplemented with 10% heat inactivated fetal bovine serum (FBS), […]. The 293T cells were propagated in DMEM media supplemented with 10% heat inactivated FBS, […]. A recombinant NL4-3 proviral clone, in which a section of the nef gene was replaced with the Renilla luciferase gene, was used to make the reference virus used in these studies. The recombinant virus was prepared through transfection of the recombinant NL4-3 proviral clone into 293T cells using Transit-293 Transfection Reagent from Mirus Bio LLC (Madison, WI). Supernatent was harvested after 2-3 days and the amount of virus present was titered in MT-2 cells using luciferase enzyme activity as a marker by measuring luciferase enzyme activity. Luciferase was quantitated using the EnduRen Live Cell Substrate from Promega (Madison, WI). Antiviral activities of compounds toward the recombinant virus were quantified by measuring luciferase activity in MT-2 cells infected for 4-5 days with the recombinant virus in the presence of serial dilutions of the compound.
The 50% effective concentration (EC50) was calculated by using the exponential form of the median effect equation where (Fa) = 1/[1+ (ED50/drug conc.)m] (Johnson VA, Byington RT. Infectivity Assay. In Techniques in HIV Research. ed. Aldovini A, Walker BD. 71-76. New York: Stockton Press.1990). The 50% inhibitory concentration (EC50) was calculated by using the exponential form of the median effect equation where percent inhibition = 1/[1 + (EC50/drug concentration)m], where m is a parameter that reflects the slope of the concentration-response curve.

Data set [1] can be described thus: Compound cytotoxicity, XTT-based colorimetric assay. To be noted: human; uninfected MT2 cells, day 4, XTT. The procedure:
(§1) Compound cytotoxicity and the corresponding CC50 values were determined using the same protocol as described in the antiviral assay except that uninfected cells were used. Cytotoxicity was assessed on day 4 in uninfected MT2 cells by using a XTT (2,3-bis[2-Methoxy-4-nitro-5-sulfophenyl]-2H-tetrazolium-5-carboxyanilide inner salt)-based colorimetric assay (Sigma-Aldrich, St Louis, Mo).

The next data set relates to uninfected MT2 cells. The data set is described as above. To be noted: day 4, XTT. The procedure: as §1
Setting [2] is: Human immunodeficiency virus 1, NL43, MT2.

Regarding `Cn1nc(NS(C)(=O)=O)c2c(Cl)ccc(-n3c([C@H](Cc4cc(F)cc(F)c4)NC(=O)Cn4nc(C(F)F)c5c4C(F)(F)[C@@H]4C[C@H]54)nc4cc(-c5nccc(C(F)F)n5)ccc4c3=O)c21` (single isomer, unassigned) [Example 2], the EC50 in the data set on recombinant NL4-3 virus (setting [2]) was 0.043 nM. Moreover, the CC50 at 4 day in data set [1] was more than 20000 nM.
For the molecule `Cn1nc(NS(C)(=O)=O)c2c(Cl)ccc(-n3c([C@H](Cc4cc(F)cc(F)c4)NC(=O)Cn4nc(C(F)F)c5c4C(F)(F)[C@@H]4C[C@H]54)nc4cc(-c5cccc(C(F)(F)F)n5)ccc4c3=O)c21` [Example 1, N-((S)-1-((3P)-3-(4-chloro-1-methyl-3-(methylsulfonamido)-1H-indazol-7-yl)-4-oxo-7-(6-(trifluoromethyl)pyridin-2-yl)-3,4-dihydroquinazolin-2-yl)-2-(3,5-difluorophenyl)ethyl)-2-((3bS,4aR)-3-(difluoromethyl)-5,5-difluoro-3b,4,4a,5-tetrahydro-1H-cyclopropa[3,4]cyclopenta[1,2-c]pyrazol-1-yl)acetamide], the half-maximal effective concentration (EC50) in the data set with recombinant NL4-3 virus (MT-2 cells infected 4-5 days, luciferase activity, read-out: EC50) is 0.093 nM. The molecule further had a CC50 in the data set with uninfected MT2 cells of more than 20000 nM.
Turning to `Cn1nc(NS(C)(=O)=O)c2c(Cl)ccc(-n3c([C@H](Cc4cc(F)cc(F)c4)NC(=O)Cn4nc(C(F)F)c5c4C(F)(F)[C@@H]4C[C@H]54)nc4nc(OCCC(F)(F)F)ccc4c3=O)c21` (atropisomer, axis not shown; (P)) [Example 4, N-(1-((6P)-3-(4-chloro-1-methyl-3-(methylsulfonamido)-1H-indazol-7-yl)-4-oxo-7-(3,3,3-trifluoropropoxy)-3,4-dihydropyrido[2,3-d]pyrimidin-2-yl)-2-(3,5-difluorophenyl)ethyl)-2-((3bS,4aR)-3-(difluoromethyl)-5,5-difluoro-3b,4,4a,5-tetrahydro-1H-cyclopropa[3,4]cyclopenta[1,2-c]pyrazol-1-yl)acetamide], the EC50 in the data set on recombinant NL4-3 virus (setting [2]) turned out to be 0.025 nM. The CC50 at 4 day in data set [1] was more than 500 nM.
Consider `Cn1nc(NS(C)(=O)=O)c2cccc(-n3c([C@H](Cc4cc(F)cc(F)c4)NC(=O)Cn4nc(C(F)F)c5c4C(F)(F)[C@@H]4C[C@H]54)nc4nc(OCCC(C)(F)F)ccc4c3=O)c21` (single isomer, unassigned) [Example 3], for which the EC50 in the data set with recombinant NL4-3 virus (setting [2]) turned out to be 0.019 nM. In data set [1], the CC50 at 4 day is more than 20000 nM.
